Reference: ChEMBL document CHEMBL1128313, “In vitro muscarinic activity of spiromuscarones and related analogs” (J Med Chem, 1995)
Active and inactive are the calls of the source. No cut-off for these calls is given here.

target: Muscarinic acetylcholine receptor; conditions: not given

| Ki [µM] | Compound |
| --- | --- |
| 430 | CC1OC2(CCN(C)CC2)CC1O.Cl (stereo unspecified) |
| 2.68 | CC1OC2(CCN(C)CC2)CC1=O (stereo unspecified) |
| 30 | CC1CC(O)C2(CCN(C)CC2)O1 (stereo unspecified) |
| 33 | CC1CC(=O)C2(CCN(C)CC2)O1 (stereo unspecified) |
| 141 | CC1OC2(CCN(C)CC2)CC1O (stereo unspecified) |

| Compound | Ki [µM] |
| --- | --- |
| CCC(=O)O/N=C1\COC2(CCN(C)CC2)C1.O=C(O)/C=C\C(=O)O.O=C(O)C(=O)O | 38.1 |
| CC1OC2(CCN(C)CC2)C/C1=N\O (stereo unspecified) | 1.63 |
| CC(=O)O/N=C1\COC2(CCN(C)CC2)C1.O=C(O)/C=C\C(=O)O.O=C(O)C(=O)O | 44.8 |
| CC(=O)OC1COC2(CCN(C)CC2)C1 (stereo unspecified) | 98.7 |

organism: Rattus norvegicus; assay: The compound was tested for maximum stimulation of PI (phosphatidyl inositol) in rat hippocampal tissue, activity is expressed as percent of carbachol response; Inactive; assay type: functional; conditions: Hippocampus

| Compound | Max stimulation |
| --- | --- |
| CC1OC2(CCN(C)CC2)C2OCCOC12 (stereo unspecified) | inactive |
| CC1OC2(CCN(C)CC2)C2SCCSC12 (stereo unspecified) | inactive |
